Laboratory results as given in patent US11142548B2, “Agents that activate CD47 and their use in the treatment of inflammation” (SORBONNE UNIVERSITE, priority 2016, dated 2021).

Assays:
[1] = tested on: recruited monocyte-derived inflammatory macrophages (recMφ); assay: Thioglycollate-induced peritonitis; assay type: in vivo, mouse; conditions: single intra-peritoneal injection at day 1, observed at day 2
Experimental: Mouse peritoneal exudate cells (PECs) were elicited by i.p. injection of 0,5 ml 3% thioglycollate (T9032, Sigma) into 10 weeks old male C57BL/6J and Cd47^−/− mice. After 1 day, PECs were isolated by flushing of the peritoneum with ice-cold PBS, Mφs were negatively selected by magnetic sorting following the manufacturers protocol (EasySep Mouse Monocyte Enrichment Kit, Stemcell Technologies), resuspended in X-VIVO 15 medium (Lonza), and plated in Lab-Tek® Chamber Slide™ (Nunc®).
To test whether CD47 influences inflammation resolution in other pathological contexts, a model of acute thioglycollate-induced peritonitis was used, characterized by an early accumulation of neutrophils, followed by recruited monocyte-derived inflammatory macrophages (recMφ), both experiencing an apoptosis-driven elimination at different kinetics (Gautier et al., Blood. 2013, 122:2714-2722).

[2] = tested on: subretinal IBA-1+ mononuclear monocytes; assay: Laser-induced subretinal inflammation in wildtype- and Tsp1-/- mice; assay type: in vivo, mouse; conditions: wildtype- and Tsp1-/- mice, intravitreal at d3, d7; FIG. 3 statistics given for Tsp1-/- mice vs PBS
Experimental: Laser-coagulations were performed with a 532 nm ophtalmological laser mounted on an operating microscope (Vitra Laser, 532 nm, 450 mW, 50 ms, and 250 μm): Intravitreal injections of 2 μl of HTRA1 and/or TSP1 were performed using glass capillaries (Eppendorf) and a micro injector. The 2 μl injection solution contained 50 μg/ml TSP1 and HTRA1, corresponding to an intraocular concentration of 5 μg/ml of each protein assuming their dilution by approximately 1/10th in the intra-ocular volume. […] A volume of 2 μl of a 100 μM solution of either PBS, recombinant TSP1 (10 μg/ml), the 4NGG control peptide or the CD47-activating peptide PKT16 (200 μM) was injected at day 4 (when MP infiltration is maximal) and day 7 after the injury and evaluated subretinal inflammation on flatmounted RPE/choroidal flatmounts at day 10.
Eyes were enucleated, fixed in 4% PFA 30 minutes and sectioned at the limbus; the cornea and lens were discarded. […] Choroids and retinas were flatmounted and viewed with a fluorescence microscope DM5500B (Leica). IBA-1+ cells were counted on whole RPE/choroidal flatmounts and on the outer segment side of the retina. […]

HTRA1 = target: T1, HTRA1 (Homo sapiens, UniProt Q92743); assay: HTRA1 cleavage sites of TSP1 by LC-MS/MS; assay type: biochemical; conditions: post-digestion fragments
T1 construct: purchased R & D
Experimental: Proteins were submitted to reduction by incubation with 5 mM dithiotreitol in 50 mM ammonium bicarbonate (AmBic) for 30 min at 37° C., then alkylation with 15 mM iodoacetamide in 50 mM AmBic for 30 min, RT. Tryptic digestion was performed with a protein/enzyme ratio of 25/1 at 37° C. overnight in 50 mM AmBic.
Peptide mixtures were supplemented with formic acid to a final concentration of 0.1% and analyzed on a U3000 nanoLC (Thermo) coupled to an HCTultra ion trap (Bruker). Peptides were concentrated and desalted for 5 min on a precolumm RP-C18 (5 mm, 300 μm i.d., 100 Å, Thermo) with a mobile phase A (2% ACN/0.1% formic acid) at a flow rate of 20 μL/min then separated on an analytical column RP-C18 (15 cm, 75 μm i.d., 100 Å, Dionex) at a flow rate of 300 nL/min. Elution gradient was run from 2% to 10% of solvent B (95% ACN/0.1% formic acid) in 10 min then 10% to 35% B in 60 min and 35% to 50% B in 10 min. The ion trap was used in the positive mode with the selection of 8 precursors from each MS spectrum for fragmentation by collision induced dissociation (CID). […]
Tryptic peptides were also analyzed by MALDI-TOF MS on an Autoflex speed (Bruker) in positive reflectron mode in the mass range 700-4000 m/z using α-Cyano-4-hydroxycinnamic acid as the matrix (0.9 mg/mL CHCA in 85% CAN, 0.1% TFA, 10 mM ammonium phosphate). […]

CD47 = CD47 (Homo sapiens, UniProt Q08722); conditions: comparison in words, no test described; cited from earlier work
Chain of CD47 (Q08722 19-323, species assumed): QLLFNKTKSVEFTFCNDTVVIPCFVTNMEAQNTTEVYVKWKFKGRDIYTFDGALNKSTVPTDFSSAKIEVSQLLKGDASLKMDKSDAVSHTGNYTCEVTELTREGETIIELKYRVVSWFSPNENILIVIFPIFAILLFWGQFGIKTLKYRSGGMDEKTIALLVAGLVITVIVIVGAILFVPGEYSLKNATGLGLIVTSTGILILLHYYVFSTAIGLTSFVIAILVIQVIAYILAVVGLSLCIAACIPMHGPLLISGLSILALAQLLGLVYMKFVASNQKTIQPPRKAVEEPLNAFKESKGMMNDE

T1 sequence (Q92743 23-480): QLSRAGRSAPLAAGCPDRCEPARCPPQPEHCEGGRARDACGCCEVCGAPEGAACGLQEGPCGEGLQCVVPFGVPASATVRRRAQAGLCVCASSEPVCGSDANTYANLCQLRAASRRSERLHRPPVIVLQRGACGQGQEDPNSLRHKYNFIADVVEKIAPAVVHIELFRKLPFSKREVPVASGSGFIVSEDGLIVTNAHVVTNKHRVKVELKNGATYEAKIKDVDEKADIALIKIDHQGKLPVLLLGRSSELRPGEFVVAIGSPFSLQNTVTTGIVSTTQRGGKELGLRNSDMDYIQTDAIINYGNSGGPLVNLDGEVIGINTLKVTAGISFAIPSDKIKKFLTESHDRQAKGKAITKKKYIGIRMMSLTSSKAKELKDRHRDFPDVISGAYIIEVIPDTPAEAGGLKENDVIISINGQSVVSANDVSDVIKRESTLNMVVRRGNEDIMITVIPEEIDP

distinct sites proteolyzed by HTRA1 (HTRA1): 5 sites
Substance: recombinant TSP1: recombinant human TSP1 (R&D Systems), natural ligand and agonist of CD47
elimination of recMφs [1]: significantly accelerated the elimination
reduction of laser-induced subretinal inflammation [2]: significantly reduces
half maximal effective concentration (EC50) relative to CD47-activating peptides or TSP2 (CD47): much lower
